PMC5450539, “Anti-Inflammatory Activity and Structure-Activity Relationships of Brominated Indoles from a Marine Mollusc” (Marine Drugs, 2017)
pIC50: −log10 of the molar value. Counter-ions that a name gives are not always drawn. Like-named read-outs stand apart in the source and are kept apart here. Each block holds one compound with its values, some of them ahead of it.

What was measured:
[1] = tested on: 3T3 ccl-92 mouse fibroblast; assay: Crystal violet cytotoxicity assay, 3T3 ccl-92; assay type: cell-based; details: 24 h incubation; max test concentration 50 µg/mL; > = <50% reduction in viability at max
Protocol: (§1) All extract/compounds were dissolved in DMSO and tested at 5 different concentrations of 50, 10, 2, 0.4, and 0.08 μg/mL for all anti-inflammatory assays unless otherwise noted. The final concentration of DMSO was 0.35% v/v for extracts and compounds. All samples were tested in triplicate at each concentration and each assay was independently repeated at least 3 times. The concentrations used for the cytotoxicity assays were 50, 25, 12.5, 6.25. and 3.125 μg/mL.
(§2) To check for cytotoxicity of the extracts and compounds against RAW264.7 mouse macrophage and 3T3 ccl-92 mouse fibroblast cell lines, the crystal violet cytotoxicity test was used according to the published protocol. In brief, RAW264.7 cells were seeded with a density of 2 × 10^4 cells/well in a 96-well plate and then incubated for 18–24 h. The following day the compounds/extracts were added and then incubated for 24 h before the media was aspirated and the cells washed twice in a gentle stream of water. After removing the water, 50 µL of 0.5% crystal violet staining solution were added and the cells were incubated for 20 min at room temperature. The plate was then washed 4 times with water and air dried for 2 h. Finally, 200 μL of methanol was added to each well and incubated for 20 min at room temperature on a rocker. This was followed by measuring the optical density at 570 nm with a plate reader Anthos Zenyth 200rt (Anthos Labtec Instruments, Heerhugowaard, The Netherlands). Chlorambucil was used as a positive control.

PGE2 production = assay: PGE2 inhibition assay (ELISA) in calcium ionophore-stimulated 3T3 ccl-92 fibroblasts; assay type: cell-based, mouse; details: for pIC50: calcium ionophore-stimulated 3T3 ccl-92, max test concentration 50 µg/mL
Protocol: The levels of PGE2 were measured in cell media using a Cayman Prostaglandin E2 Express ELISA Kit (Cayman Chemical, Ann Arbor, MI, USA) according to the manufacturer’s instructions. In brief, the 3T3 ccl-92 fibroblasts (1 × 10^5 cells/mL) were grown overnight in a 96-well plate and then treated with extracts/compounds 3 h before being stimulated with Calcium ionophore (50 μM). After 20 min, supernatants were collected and PGE2 production was quantified by measuring the absorbance at 405 nm wavelength with an Anthos Zenyth 200rt (Anthos Labtech Instruments). Indomethacin at a concentration of 100 μM was used as a positive control and ~0.5% DMSO as a negative control.
(§3) All data were processed in Microsoft Office Excel 2013 (MS) first to obtain descriptive statistics. One-way Analysis of Variance (ANOVA) followed by Dunnett’s multiple comparisons test was performed using GraphPad Prism version 6.00 for Windows (GraphPad Software, La Jolla, CA, USA, www.graphpad.com), with p < 0.05 considered significant. The inhibitory concentration responsible for a 50% reduction in cell viability or production of inflammatory markers (IC50) was calculated using the regression analysis, Probit in SPSS v21.

TNFα production = assay: TNF-alpha inhibition assay (ELISA) in LPS-stimulated RAW264.7 macrophages; assay type: cell-based, mouse; details: for pIC50: max test concentration 50 µg/mL, read-out: TNFα IC50
Protocol: The amount of TNFα was quantified in cell culture media using murine TNFα ELISA kits (BD bioscience). In brief, the RAW264.7 mouse macrophages (6 × 10^5 cells/mL) were stimulated with LPS (100 ng/mL) 1 h after treatment with several concentrations of extracts (0.08–50 μg/mL). After 18 h, the supernatant was collected and TNFα production was measured by reading the absorbance at 450 nm wavelength on an Anthos Zenyth 200rt microplate reader (Anthos Labtech Instruments). Dexamethasone at a concentration of 2.5 μM was used as a positive control, with a negative control of 0.35% DMSO.
as §3

[2] = tested on: nitric oxide (NO) production; assay: NO inhibition assay (Greiss) in LPS-stimulated RAW264.7 macrophages; assay type: cell-based, mouse; details: for pIC50 / IC50: read-out: NO IC50; for lowest concentration with significant inhibition of NO production: significant vs DMSO control; for reduction of NO production: 50 µg/mL (maximum test concentration), relative to DMSO control; for NO inhibitory activity (in words): LPS-stimulated RAW264.7, up to 50 µg/mL
Protocol: RAW264.7 macrophages were incubated 1 h with extracts/compounds prior to the addition of LPS. […] Then, 20 h after the addition of LPS, the supernatant was collected. […] The plates were incubated for 15–20 min in the dark, then read at 550 nm wavelength on an Anthos Zenyth 200rt (Anthos Labtec Instruments). Sodium nitrite was used to prepare a standard curve to quantify the nitrite from the absorbance readings in this assay. All data were processed in Microsoft Office Excel 2013 (MS) first to obtain descriptive statistics. One-way Analysis of Variance (ANOVA) followed by Dunnett’s multiple comparisons test was performed using GraphPad Prism version 6.00 for Windows (GraphPad Software, La Jolla, CA, USA, www.graphpad.com), with p < 0.05 considered significant.

NFκB translocation = assay: Assessment of NFκB translocation in LPS-stimulated RAW264.7; assay type: cell-based; details: Mus musculus, RAW264.7, 40 µg/mL, LPS-stimulated RAW264.7, relative to DMSO + LPS
Protocol: This assay was performed according to the published protocol in Olivera et al.. RAW264.7 mouse macrophages were seeded at 400,000 cells/well in 800 μL in 4-well chambered slides and incubated overnight. The cells were then incubated with the test samples (40 μg/mL HBG extract, 6-bromoisatin, or 6-bromoindole) for 1 h prior to stimulation with LPS (700 ng/mL) for 30 min. After stimulation, the cells were washed with PBS and fixed with 3.7% paraformaldehyde for 15 min. […] The cells were washed with PBS and incubated with rabbit anti-p65 NFκB antibody (1:500) and goat anti-mouse IκB (1:500) overnight at 4 °C. The following day, the cells were washed again three times with PBS and incubated for 1 h with goat-anti-rabbit IgG conjugated with Alexa Fluor 594 (1:1000) and donkey anti-mouse IgG conjugated with Alexa fluor 488 (1:1000) at room temperature. Finally, the cells were washed with PBS then mounted with Prolong mounting media containing DAPI before visualising using the Olympus Flouview FVi10 confocal microscope (Olympus, Tokyo, Japan). Using ImageJ (v1.50i, National Institutes of Health, Bethesda, MD, USA), an outline was drawn around each nucleus by adjusting the colour threshold of DAPI. Mean fluorescence inside the nucleus was measured, along with several adjacent background readings. The total corrected cellular fluorescence (TCCF) was calculated by applying the equation TCCF = integrated density − (area of selected cell × mean fluorescence of background readings). This TCCF was then used to calculate the %inhibition of the NFκB translocation against the positive control where the cells were treated with LPS in the presence of the Vehicle (0.35% DMSO v/v) in Microsoft Office Excel 2013 (Redmond, WA, USA).

in vitro = details: mouse
Protocol: as §1, §2

[3] = Crystal violet cytotoxicity assay, 3T3 ccl-92; assay type: cell-based, mouse; details: mouse, 3T3 ccl-92 fibroblast cells; 3T3, 50 µg/mL, 24 h incubation, compared to DMSO-treated wells
Protocol: as §1, §2

PGE2 = tested on: PGE2; design: method as in Matheus et al. [37]; details: ref Matheus et al. [37]; cited from earlier work
NO production = tested on: NO production; design: method as in Matheus et al. [37]; details: ref Matheus et al. [37]; cited from earlier work
[4] = tested on: RAW264.7 mouse macrophage; assay: Crystal violet cytotoxicity assay, RAW264.7; details: 24 h incubation; max test concentration 50 µg/mL; > = <50% reduction in viability at max, ~ = close to 50%
Protocol: as §1, §2

[5] = Mus musculus, RAW264.7, LPS-stimulated RAW264.7
[6] = Mus musculus, RAW264.7, LPS-stimulated RAW264.7, max test concentration 50 µg/mL

SMILES: O=C1Nc2cc(Br)ccc2C1=O [6-bromoisatin]
Cytotoxicity 3T3 ccl-92 (test concentration which causes toxicity) [1]: NA (not active at maximum test concentration 50 µg/mL) | pIC50 (PGE2 production; Mus musculus, Fibroblast): < 3.66 | inhibition at 0.08 µg/mL (PGE2 production; Mus musculus, Fibroblast, 0.08 µg/mL): 10% | inhibition at 50 µg/mL (PGE2 production; Mus musculus, Fibroblast, 50 μg/mL): 40% | pIC50 (TNFα production; LPS-stimulated RAW264.7, listed as 6-bromoisatin (4)): 3.91 | pIC50 (TNFα production; [5]): 3.91 | pIC50 [2, 6]: 3.92 | IC50 [2, 5]: 27.1 µg/mL | lowest concentration with significant inhibition of NO production [2]: 0.4 µg/mL | inhibition at 40 µg/mL (NFκB translocation): 63.7%

SMILES: O=C1Nc2c(Br)cccc2C1=O [7-bromoisatin]
viability at 24 h, 50 µg/mL (in vitro): 81.9% | viability at 24 h, 50 µg/mL [3]: 80.9% | Cytotoxicity 3T3 ccl-92 (test concentration which causes toxicity) [1]: >221.21 µM | reduction of NO production [2]: less than 5% | IC50 [2, 6]: > 50 µg/mL

SMILES: O=C1Nc2cc(Br)ccc2C1=C1Nc2ccccc2C1=O [6-bromoindirubin]
viability at 24 h, 50 µg/mL (in vitro): 56.2% | NO inhibitory activity (in words) [2]: minimal inhibitory activity | IC50 [2, 6]: > 50 µg/mL

SMILES: C[C@@H]1C[C@H]2[C@@H]3CCC4=CC(=O)C=C[C@]4(C)[C@@]3(F)[C@@H](O)C[C@]2(C)[C@@]1(O)C(=O)CO [dexamethasone, reference compound]
inhibition at 2.5 µM ([2]; Mus musculus, RAW264.7, working concentration 2.5 µM, positive control): 56%

SMILES: O=C1Nc2cccc(Br)c2C1=O [4-bromoisatin]
inhibition of PGE2 (in words) (PGE2): did not inhibit | inhibition of NO production (in words) (NO production): did not inhibit

SMILES: O=C1Nc2ccc(Br)cc2C1=O [5-bromoisatin]
viability at 24 h, 50 µg/mL (in vitro): 55% | Cytotoxicity RAW264.7 (test concentration which causes toxicity) [4]: ~221.21 µM | Cytotoxicity 3T3 ccl-92 (test concentration which causes toxicity) [1]: NA (not active at maximum test concentration 50 µg/mL) | pIC50 (TNFα production; LPS-stimulated RAW264.7, listed as 5-bromoisatin (9)): 4.42 | pIC50 (TNFα production; [5]): 4.42 | inhibition at 50 µg/mL (TNFα production; Mus musculus, RAW264.7, 50 μg/mL): 100% | pIC50 ([2]; LPS-stimulated RAW264.7, max test concentration 50 µg/mL, listed as 5-bromoisatin (9)): 3.82 | pIC50 [2, 6]: 3.82 | IC50 [2, 5]: 34.3 µg/mL

SMILES: Brc1ccc2cc[nH]c2c1 [6-bromoindole]
viability at 24 h, 50 µg/mL (in vitro): 66.4% | Cytotoxicity RAW264.7 (test concentration which causes toxicity) [4]: >255.04 µM | Cytotoxicity 3T3 ccl-92 (test concentration which causes toxicity) [1]: NA (not active at maximum test concentration 50 µg/mL) | pIC50 (PGE2 production; Mus musculus, Fibroblast): 3.65 | pIC50 (PGE2 production; listed as 6-bromoindole (11)): 3.65 | lowest concentration with significant PGE2 inhibition (PGE2 production; p < 0.05 vs solvent control): 0.08 µg/mL | pIC50 (TNFα production; LPS-stimulated RAW264.7, listed as 6-bromoindole (11)): 3.82 | pIC50 (TNFα production; [5]): 3.82 | pIC50 [2, 6]: 3.73 | inhibition at 40 µg/mL (NFκB translocation): 60.7%

SMILES: O=C1C(=C2Nc3cc(Br)ccc3C2=O)Nc2cc(Br)ccc21 [6,6 dibromoindigo]
Cytotoxicity 3T3 ccl-92 (test concentration which causes toxicity) [1]: NA (not active at maximum test concentration 50 µg/mL) | NO inhibitory activity (in words) [2]: minimal inhibitory activity | IC50 [2, 6]: > 50 µg/mL

SMILES: O=C1Nc2ccc(I)cc2C1=O [Compound 5-iodoisatin, 5-iodoisatin]
inhibition of PGE2 (in words) (PGE2): did not inhibit | inhibition of NO production (in words) (NO production): did not inhibit

Continued, in another order:

pIC50 [2, 6]: < 4.01
SMILES: CSC1(C2(SC)Nc3cc(Br)ccc3C2=O)Nc2cc(Br)ccc2C1=O (stereo not shown) [tyriverdin]
Cytotoxicity 3T3 ccl-92 (test concentration which causes toxicity) [1]: NA (not active at maximum test concentration 50 µg/mL) | reduction of NO production [2]: less than 50% | lowest concentration with significant inhibition of NO production [2]: 10 µg/mL

pIC50 (TNFα production; LPS-stimulated RAW264.7, listed as Tyrindoleninone (3)): 3.80 | pIC50 (TNFα production; [5]): 3.80 | pIC50 [2, 6]: 3.99 | IC50 [2, 5]: 26.4 µg/mL
SMILES: CSC1=Nc2cc(Br)ccc2C1=O [tyrindoleninone]
viability at 24 h, 50 µg/mL (in vitro): 84.1% | Cytotoxicity 3T3 ccl-92 (test concentration which causes toxicity) [1]: NA (not active at maximum test concentration 50 µg/mL) | lowest concentration with significant inhibition of NO production [2]: 0.08 µg/mL

IC50 [2, 6]: > 50 µg/mL
SMILES: CSc1[nH]c2cc(Br)ccc2c1OS(=O)(=O)O [Tyrindoxyl sulfate, tyrindoxyl sulfate]
Cytotoxicity 3T3 ccl-92 (test concentration which causes toxicity) [1]: NA (not active at maximum test concentration 50 µg/mL)

IC50 [2, 6]: > 50 µg/mL
SMILES: O=C1Nc2ccccc2/C1=C1/Nc2ccccc2C1=O [indirubin]
Cytotoxicity 3T3 ccl-92 (test concentration which causes toxicity) [1]: NA (not active at maximum test concentration 50 µg/mL) | NO inhibitory activity (in words) [2]: minimal inhibitory activity
